Measured values as given in patent US3965257A, “Compositions and methods for the treatment of the symptoms of histamine induced allergic reactions” (Richardson-Merrell Inc., priority 1974, dated 1976).

Assays:
[1] = system: aerosol antigen induced bronchial spasms and death; experiment: prevention of aerosol antigen induced bronchial spasms and death in the guinea pig; assay type: in vivo; settings: Cavia porcellus, po, orally, read-out: minimal amount required to prevent aerosol antigen induced bronchial spasms and death
Excerpt: The minimal amounts of the compounds of Examples 4,5,6 and 9 required to prevent aerosol antigen induced bronchial spasms and death in the quinea pig are respectively 1.0, 4.0, 1.0 and 4.0 milligrams per kilogram of body weight orally.

[2] = system: wheals induced by intradermal injections of histamine; experiment: reduction by 50% of wheals induced by intradermal injections of histamine into guinea pigs; assay type: in vivo, guinea pig; settings: Cavia porcellus, po, 1 h, orally administered one hour prior to the histamine injection, read-out: ED50 (amount required to reduce by 50% wheals induced by intradermal injections of histamine)

Compound | minimal effective dose [1] [mg/kg] | ED50 [2] [mg/kg]
CC(C)(C)c1ccc(C(=O)CCCN2CCC(C(O)(c3ccccc3)c3ccccc3)CC2)cc1.Cl [Example 6, 4'-tert-Butyl-4-[4-(α-hydroxy-α-phenylbenzyl)piperidino] butyrophenone hydrochloride] | 1 | 1.8
Cl.O=C(CCCN1CCC(C(O)(c2ccccc2)c2ccccc2)CC1)c1cccs1 [Example 4, 4-[4-(α -Hydroxy-α -phenylbenzyl)piperidino] -1-(2-thienyl)-butan-1-one hydrochloride] | 1 | 3.1
O=C(CCCN1CCC(C(O)(c2ccccc2)c2ccccc2)CC1)c1ccc(N2CCCCC2)cc1 [Example 9, 4-[4-(α-Hydroxy-α-phenylbenzyl)piperidino]-4'-piperidinobutyrophenone] | 4 | 3.4
Cc1ccc(C(=O)CCCN2CCC(C(O)(c3ccccc3)c3ccccc3)CC2)cc1.Cl [Example 5, 4-[4-(α-Hydroxy-α-phenylbenzyl)piperidino] -4'-methylbutyrophenone hydrochloride] | 4 | 1.9
